How the values were obtained:
Format in all cases: cell-based, human
Details in all cases: Tacrolimus 10 ng/mL (Table 3); 7 days MLR; mean +/- SD
CD3^+CD4^+ cells = assay: In vitro T cell proliferation assay (allogenic PBMC co-culture, MLR), CD3+CD4+ cells
Text: (§1) Frozen PBMC were thawed in RPMI medium (Gibco, Thermofisher scientific, Waltham, Massachusetts, USA) with 20% fetal bovine serum (Cytiva, Little Chalfont, Buckinghamshire, United Kingdom). 200 000 PBMC from an individual, stained with CelltraceTM Violet Dye (Thermofisher scientific), were cocultured with 200 000 PBMC from another individual stained with CelltraceTM Farr Red Dye (Thermofisher Scientific) in RPMI medium supplemented with 10 % FBS and penicilline-streptomycine (Cultek, Madrid, Spain) for 7 days. […] Cells were analyzed using a LSRFortessaTM flow cytometer with DIVA (BD Biosciences) and FlowJo Softwares (Tree Star, Ashland, OR, USA). For each condition, we assessed the proportion of PBMC with low Violet or Farr Red dye staining among CD3^+ cells, C3^+CD4^+ cells and CD3^+CD4^+PD-1^+ cells and proceeded to normalization to the MLR without drug condition.

CD3^+ cells = assay: In vitro T cell proliferation assay (allogenic PBMC co-culture, MLR), CD3+ cells
Text: as §1

CD3^+CD4^+PD-1^+ cells = assay: In vitro T cell proliferation assay (allogenic PBMC co-culture, MLR), CD3+CD4+PD-1+ cells
Text: as §1

SMILES: C=CC[C@@H]1/C=C(\C)C[C@H](C)C[C@H](OC)[C@H]2O[C@@](O)(C(=O)C(=O)N3CCCC[C@H]3C(=O)O[C@H](/C(C)=C/[C@@H]3CC[C@@H](O)[C@H](OC)C3)[C@H](C)[C@@H](O)CC1=O)[C@H](C)C[C@@H]2OC [Tacrolimus]
- Proliferation of CD3^+CD4^+ cells (% of proliferation compared with the condition without drug) (CD3^+CD4^+ cells): 23.34 +/- 20.03%
- Proliferation of CD3^+ cells (% of proliferation compared with the condition without drug) (CD3^+ cells): 19.35 +/- 14.78%
- Proliferation of CD3^+CD4^+PD-1^+ cells (% of proliferation compared with the condition without drug) (CD3^+CD4^+PD-1^+ cells): 25.65 +/-20.39%
